{
  "source": "ChEMBL document CHEMBL1201862",
  "about": "“PubChem BioAssay data set” (2004)",
  "assay_in_all_cases": "NCI anticancer screen, dose series, 48 h",
  "key": {"786-0": {"test_system": "786-0"}, "A498": {"test_system": "A498"}, "A549": {"test_system": "A549"}, "ACHN": {"test_system": "ACHN"}, "BT-549": {"test_system": "BT-549"}, "CAKI-1": {"test_system": "CAKI-1"}, "CCRF-CEM": {"test_system": "CCRF-CEM"}, "COLO 205": {"test_system": "COLO 205"}, "DU-145": {"test_system": "DU-145"}, "EKVX": {"test_system": "EKVX"}, "HCC 2998": {"test_system": "HCC 2998"}, "HCT-116": {"test_system": "HCT-116"}, "HCT-15": {"test_system": "HCT-15"}, "HL-60": {"test_system": "HL-60"}, "HOP-62": {"test_system": "HOP-62"}, "HOP-92": {"test_system": "HOP-92"}, "HT-29": {"test_system": "HT-29"}, "Hs-578T": {"test_system": "Hs-578T"}, "IGROV-1": {"test_system": "IGROV-1"}, "K562": {"test_system": "K562"}, "KM12": {"test_system": "KM12"}, "LOX IMVI": {"test_system": "LOX IMVI"}, "MCF7": {"test_system": "MCF7"}, "MDA-MB-231": {"test_system": "MDA-MB-231"}, "MDA-MB-435": {"test_system": "MDA-MB-435"}, "MDA-N": {"test_system": "MDA-N"}, "MOLT-4": {"test_system": "MOLT-4"}, "Malme-3M": {"test_system": "Malme-3M"}, "NCI-H226": {"test_system": "NCI-H226"}, "NCI-H23": {"test_system": "NCI-H23"}, "NCI-H460": {"test_system": "NCI-H460"}, "NCI-H522": {"test_system": "NCI-H522"}, "NCI/ADR-RES": {"test_system": "NCI/ADR-RES"}, "OVCAR-3": {"test_system": "OVCAR-3"}, "OVCAR-4": {"test_system": "OVCAR-4"}, "OVCAR-5": {"test_system": "OVCAR-5"}, "OVCAR-8": {"test_system": "OVCAR-8"}, "PC-3": {"test_system": "PC-3"}, "RPMI-8226": {"test_system": "RPMI-8226"}, "RXF 393": {"test_system": "RXF 393"}, "SF-268": {"test_system": "SF-268"}, "SF-295": {"test_system": "SF-295"}, "SF-539": {"test_system": "SF-539"}, "SK-MEL-28": {"test_system": "SK-MEL-28"}, "SK-MEL-2": {"test_system": "SK-MEL-2"}, "SK-MEL-5": {"test_system": "SK-MEL-5"}, "SN12C": {"test_system": "SN12C"}, "SNB-75": {"test_system": "SNB-75"}, "SR": {"test_system": "SR"}, "SW-620": {"test_system": "SW-620"}, "T47D": {"test_system": "T47D"}, "TK-10": {"test_system": "TK-10"}, "U-251": {"test_system": "U-251"}, "UACC-257": {"test_system": "UACC-257"}, "UACC-62": {"test_system": "UACC-62"}, "UO-31": {"test_system": "UO-31"}},
  "note": "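Assay format: 96-well plates, 48-hour exposure. The concentration for 50% growth inhibition is given as GI50.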 The source made the active and inactive calls. Rule as the data show it: active = GI50 up to about 1.1 µM and inactive = higher.",
  "data": [
    {"compound": "CC(=O)O[C@@H](c1nccn1Cc1ccccc1)[C@H]1OC(C)(C)O[C@@H]1[C@H]1COC(C)(C)O1", "values": [
      {"measurement": "GI50", "setting": "786-0", "result": "> 100 µM (inactive)"},
      {"measurement": "GI50", "setting": "A498", "result": "> 100 µM (inactive)"},
      {"measurement": "GI50", "setting": "A549", "result": "> 100 µM (inactive)"},
      {"measurement": "GI50", "setting": "ACHN", "result": "> 100 µM (inactive)"},
      {"measurement": "GI50", "setting": "BT-549", "result": "> 100 µM (inactive)"},
      {"measurement": "GI50", "setting": "CAKI-1", "result": "> 100 µM (inactive)"},
      {"measurement": "GI50", "setting": "CCRF-CEM", "result": "> 100 µM (inactive)"},
      {"measurement": "GI50", "setting": "COLO 205", "result": "> 100 µM (inactive)"},
      {"measurement": "GI50", "setting": "DU-145", "result": "> 100 µM (inactive)"},
      {"measurement": "GI50", "setting": "EKVX", "result": "> 100 µM (inactive)"},
      {"measurement": "GI50", "setting": "HCC 2998", "result": "> 100 µM (inactive)"},
      {"measurement": "GI50", "setting": "HCT-116", "result": "> 100 µM (inactive)"},
      {"measurement": "GI50", "setting": "HCT-15", "result": "> 100", "unit": "µM"},
      {"measurement": "GI50", "setting": "HL-60", "result": "> 100 µM (inactive)"},
      {"measurement": "GI50", "setting": "HOP-62", "result": "> 100 µM (inactive)"},
      {"measurement": "GI50", "setting": "HOP-92", "result": "> 100 µM (inactive)"},
      {"measurement": "GI50", "setting": "HT-29", "result": "> 100 µM (inactive)"},
      {"measurement": "GI50", "setting": "Hs-578T", "result": "> 100 µM (inactive)"},
      {"measurement": "GI50", "setting": "IGROV-1", "result": "> 100 µM (inactive)"},
      {"measurement": "GI50", "setting": "K562", "result": "> 100 µM (inactive)"},
      {"measurement": "GI50", "setting": "KM12", "result": "> 100 µM (inactive)"},
      {"measurement": "GI50", "setting": "LOX IMVI", "result": "> 100 µM (inactive)"},
      {"measurement": "GI50", "setting": "MCF7", "result": "> 100 µM (inactive)"},
      {"measurement": "GI50", "setting": "MDA-MB-231", "result": "> 100 µM (inactive)"},
      {"measurement": "GI50", "setting": "MDA-MB-435", "result": "> 100 µM (inactive)"},
      {"measurement": "GI50", "setting": "MDA-N", "result": "> 100 µM (inactive)"},
      {"measurement": "GI50", "setting": "MOLT-4", "result": "> 100 µM (inactive)"},
      {"measurement": "GI50", "setting": "Malme-3M", "result": "> 100 µM (inactive)"},
      {"measurement": "GI50", "setting": "NCI-H226", "result": "> 100 µM (inactive)"},
      {"measurement": "GI50", "setting": "NCI-H23", "result": "> 100 µM (inactive)"},
      {"measurement": "GI50", "setting": "NCI-H460", "result": "> 100 µM (inactive)"},
      {"measurement": "GI50", "setting": "NCI-H522", "result": "> 100 µM (inactive)"},
      {"measurement": "GI50", "setting": "NCI/ADR-RES", "result": "> 100 µM (inactive)"},
      {"measurement": "GI50", "setting": "OVCAR-3", "result": "> 100 µM (inactive)"},
      {"measurement": "GI50", "setting": "OVCAR-4", "result": "> 100 µM (inactive)"},
      {"measurement": "GI50", "setting": "OVCAR-5", "result": "> 100 µM (inactive)"},
      {"measurement": "GI50", "setting": "OVCAR-8", "result": "> 100 µM (inactive)"},
      {"measurement": "GI50", "setting": "PC-3", "result": "> 100 µM (inactive)"},
      {"measurement": "GI50", "setting": "RPMI-8226", "result": "> 100 µM (inactive)"},
      {"measurement": "GI50", "setting": "RXF 393", "result": "> 100 µM (inactive)"},
      {"measurement": "GI50", "setting": "SF-268", "result": "> 100 µM (inactive)"},
      {"measurement": "GI50", "setting": "SF-295", "result": "> 100 µM (inactive)"},
      {"measurement": "GI50", "setting": "SF-539", "result": "> 100 µM (inactive)"},
      {"measurement": "GI50", "setting": "SK-MEL-28", "result": "> 100 µM (inactive)"},
      {"measurement": "GI50", "setting": "SK-MEL-2", "result": "> 100 µM (inactive)"},
      {"measurement": "GI50", "setting": "SK-MEL-5", "result": "> 100 µM (inactive)"},
      {"measurement": "GI50", "setting": "SN12C", "result": "> 100 µM (inactive)"},
      {"measurement": "GI50", "setting": "SNB-75", "result": "> 100 µM (inactive)"},
      {"measurement": "GI50", "setting": "SR", "result": "> 10 µM (inactive)"},
      {"measurement": "GI50", "setting": "SW-620", "result": "> 100 µM (inactive)"},
      {"measurement": "GI50", "setting": "T47D", "result": "> 10 µM (inactive)"},
      {"measurement": "GI50", "setting": "TK-10", "result": "> 100 µM (inactive)"},
      {"measurement": "GI50", "setting": "U-251", "result": "> 100 µM (inactive)"},
      {"measurement": "GI50", "setting": "UACC-257", "result": "> 100 µM (inactive)"},
      {"measurement": "GI50", "setting": "UACC-62", "result": "> 100 µM (inactive)"},
      {"measurement": "GI50", "setting": "UO-31", "result": "> 100 µM (inactive)"}
    ]}
  ]
}
